Results on 3 compounds are retold here after ChEMBL document CHEMBL1129759, “A comparative study of the solvolysis reactivity, regioselectivity, and stereochemistry of the duocarmycin a and sa alkylation subunits” (Bioorg Med Chem Lett, 1996).

Series [1] deals with L1210. Kind of series: Compound was tested for its anti tumor activity against L1210 cells. The series is classed as functional, cell-based. As to conditions: Mus musculus.
A short description of series [2]: Half-life […] at pH 3.0. The series is classed as ADME, cell-free.
For series [3], the system named is L1210. Put plainly: The compound was tested for its anti tumor activity against L1210 cells. In kind it is functional, cell-based. Particulars: Mus musculus.

Molecules are shown by their SMILES.

Usually IC50 stands for the midpoint of a concentration-inhibition curve. One may read the half-life as the time needed for the level to fall by half in the phase considered. Regarding `COC(=O)c1cc2c([nH]1)C(=O)C=C1N(C(=O)OC(C)(C)C)C[C@H]3C[C@]123`, in series [1], the midpoint of inhibition, the IC50, lay at 0.006 µM. This compound had a half-life in series [2] of 177 h.
Consider `COC(=O)[C@]1(C)N=C2C(=O)C=C3N(C(=O)OC(C)(C)C)C[C@H]4C[C@@]34C2=C1O`, for which the half-inhibitory concentration (IC50) in series [1] came out at 2 µM. In series [2], this compound showed a half-life of 11 h.
Compound `Cc1c[nH]c2c1[C@@]13C[C@@H]1CN(C(=O)OC(C)(C)C)C3=CC2=O` returned a half-maximal inhibitory concentration (IC50) in series [3] of 0.33 µM. Further, in series [2], the half-life is 37 h.
